The record followed here is ChEMBL document CHEMBL1201862, “PubChem BioAssay data set” (2004).

Molecules are shown by their SMILES.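 Five compound concentrations were applied to cells in 96-well plates for 48 hours; endpoints were derived by simple linear interpolation of the resulting dose-response curve. At the GI50, growth is halved.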 Active and inactive are the calls of the source. Cut-off read from the data, not from the text of the source: active = GI50 up to about 1.1 µM and inactive = higher.

Test systems include SF-268; A549; SK-MEL-28; MCF7; MDA-MB-435; CCRF-CEM; DU-145; SK-OV-3; K562; SN12C; CAKI-1; HL-60; SNB-19; Malme-3M; 786-0; NCI-H460; EKVX; COLO 205; OVCAR-8; A498.
Holding throughout (assay): NCI-60 cell line screen, 48 h

As for `CCOC(=O)c1c(C)n(-c2ccc(C)cc2)c(=O)c2ccccc2c(=O)c2c(=O)ccc(=O)c1=2`, the GI50 with SF-268 is 19.8 µM (inactive); in the assay with A549 it was 20.2 µM (inactive); in the assay with SK-MEL-28, 12.2 µM (inactive); in the assay with MCF7, 18.8 µM (inactive); with MDA-MB-435, 15.3 µM (inactive); in the assay with CCRF-CEM, 6.34 µM (inactive). In addition, the GI50 in the assay with DU-145 is 20 µM (inactive); in the assay with SK-OV-3 it was 27 µM (inactive); with K562, 15.2 µM (inactive); with SN12C, 21.7 µM (inactive); with CAKI-1 it was 14.5 µM (inactive); in the assay with HL-60 it was 14.1 µM (inactive). Further, the GI50 is 32.2 µM (inactive) with SNB-19; 17 µM (inactive) in the assay on Malme-3M; 31 µM (inactive) in the assay on 786-0; 19.4 µM (inactive) in the assay with NCI-H460; 21.6 µM (inactive) with EKVX; 15.2 µM (inactive) with COLO 205. The GI50 in the assay with OVCAR-8 was 16.2 µM (inactive).

Take `O=C1CSC(c2c[nH]c3ccccc23)N1c1ccc(Cl)cc1Cl` (stereo unspecified): the GI50 in the assay on SF-268 is > 100 µM (inactive); with A549, > 100 µM (inactive); in the assay with SK-MEL-28 it was > 100 µM (inactive); in the assay on MCF7, > 100 µM (inactive); in the assay with MDA-MB-435 it was > 10 µM (inactive); in the assay with CCRF-CEM it was > 100 µM (inactive). In addition, the GI50 with DU-145, in the assay with SK-OV-3, in the assay with K562, in the assay on SN12C, with HL-60 and with SNB-19 was > 100 µM (inactive) throughout. The GI50 in the assay with 786-0, in the assay with NCI-H460, with EKVX, with COLO 205 and in the assay with OVCAR-8 was > 100 µM (inactive) in each case.

Regarding `CC12c3c4cc(Br)cc3Oc3cc(Br)cc(c31)Oc1cc(Br)cc(c12)O4`, the GI50 in the assay on SF-268 was 10.5 µM (inactive); in the assay on A549, 44.8 µM (inactive); with SK-MEL-28, 30.5 µM (inactive); in the assay with MCF7, 43.4 µM (inactive); in the assay with MDA-MB-435, 26.2 µM (inactive); in the assay on DU-145, 16.4 µM (inactive). Besides, the GI50 with SK-OV-3 was > 100 µM (inactive); in the assay with K562, 44.4 µM (inactive); in the assay with SN12C, 31 µM (inactive); with SNB-19, > 100 µM (inactive); in the assay on Malme-3M it was 19.9 µM (inactive); with 786-0 it was 19.8 µM (inactive). For the same compound, the GI50 in the assay on NCI-H460 is 63.1 µM (inactive); in the assay on EKVX, 19.7 µM (inactive); in the assay with COLO 205, 25.6 µM (inactive); with OVCAR-8, 55 µM (inactive).

Take `COC(=O)c1ccc(CN2CCc3c([nH]c4ccccc34)C2CO)o1` (stereo unspecified): the GI50 with SF-268, in the assay on A549, in the assay on SK-MEL-28, in the assay on MCF7, in the assay on MDA-MB-435 and in the assay on CCRF-CEM was > 10 µM (inactive) throughout. Further, the GI50 with DU-145, with SK-OV-3, with K562, in the assay with SN12C, in the assay with CAKI-1 and with HL-60 was > 10 µM (inactive) each time. Moreover, the GI50 in the assay on Malme-3M, in the assay with 786-0, with EKVX, in the assay on COLO 205 and in the assay on OVCAR-8 was > 10 µM (inactive) in each case.

On to `c1ccc(C2=NCCc3cc4c(cc32)OCO4)cc1`, for which the GI50 in the assay with SF-268 is > 100 µM (inactive); in the assay with A549, > 100 µM (inactive); with SK-MEL-28, > 100 µM (inactive); in the assay with MCF7 it was > 100 µM (inactive); in the assay with MDA-MB-435 it was > 100 µM (inactive); in the assay on CCRF-CEM, > 10 µM (inactive). Besides, the GI50 in the assay on DU-145, with SK-OV-3, in the assay on SN12C, in the assay on CAKI-1, in the assay on SNB-19 and in the assay on Malme-3M was > 100 µM (inactive) each time. In addition, the GI50 with 786-0, in the assay on EKVX, with COLO 205, in the assay with OVCAR-8 and with A498 was > 100 µM (inactive) in each case.

Regarding `CC(C)=CCC/C(C)=C/CC/C(C)=C/[C@@H]1[C@@H](CO)[C@]1(C)CC/C=C(\C)CCC=C(C)C`, the GI50 in the assay on SF-268 was 19.4 µM (inactive); with A549, 39.8 µM (inactive); with SK-MEL-28 it was > 100 µM (inactive); with MDA-MB-435, 85.9 µM (inactive); in the assay with CCRF-CEM it was 0.251 µM (active); in the assay with DU-145, 39.6 µM (inactive). The GI50 in the assay with SK-OV-3 is > 100 µM (inactive); with K562, 31.3 µM (inactive); in the assay with SN12C it was 41.1 µM (inactive); in the assay on CAKI-1 it was 46.3 µM (inactive); in the assay with SNB-19, > 100 µM (inactive); in the assay on Malme-3M, > 100 µM (inactive). Besides, the GI50 in the assay on 786-0 is 18.4 µM (inactive); in the assay with NCI-H460, 47.6 µM (inactive); in the assay with EKVX, 20.2 µM (inactive); in the assay on COLO 205 it was 63.1 µM (inactive); in the assay with OVCAR-8 it was 17.1 µM (inactive); with A498, > 100 µM (inactive).

Take `CCOC(=O)C(NCc1ccc2c(c1)OCO2)(NC(=O)c1ccccc1)C(F)(F)F` (stereo unspecified): the GI50 was > 100 µM (inactive) in the assay with SF-268; 71 µM (inactive) in the assay on A549; > 100 µM (inactive) in the assay on SK-MEL-28; 60.3 µM (inactive) in the assay with MCF7; > 100 µM (inactive) in the assay with MDA-MB-435; 19.5 µM (inactive) in the assay on CCRF-CEM. Further, the GI50 in the assay on DU-145 is > 100 µM (inactive); in the assay with SK-OV-3, > 100 µM (inactive); in the assay with K562, 44.4 µM (inactive); with SN12C, > 100 µM (inactive); with CAKI-1, > 100 µM (inactive); in the assay with HL-60, 16.9 µM (inactive). In addition, the GI50 with SNB-19 was > 100 µM (inactive); in the assay with Malme-3M, > 100 µM (inactive); in the assay with 786-0 it was > 100 µM (inactive); in the assay on EKVX, 86.1 µM (inactive); in the assay on COLO 205, > 100 µM (inactive); with OVCAR-8, > 100 µM (inactive).

Regarding `O=C(O)C(O)c1ccc(F)cc1` (stereo unspecified), the GI50 with SF-268, in the assay on A549, in the assay with SK-MEL-28, in the assay on MCF7, with MDA-MB-435 and in the assay on DU-145 was > 100 µM (inactive) each time. The GI50 in the assay on SK-OV-3, in the assay with K562, in the assay with SN12C, with CAKI-1, in the assay on SNB-19 and in the assay on Malme-3M was > 100 µM (inactive) throughout. Also, the GI50 with 786-0, in the assay on NCI-H460, with EKVX, with OVCAR-8 and in the assay with A498 was > 100 µM (inactive) each time.

On to `O=C(c1ccco1)n1c2ccc(Br)cc2c2nc3ccccc3nc21`, for which the GI50 in the assay with SF-268 was 27 µM (inactive); in the assay on SK-MEL-28, > 100 µM (inactive); with MCF7, 5.09 µM (inactive); in the assay with MDA-MB-435, > 100 µM (inactive); in the assay on CCRF-CEM, 40.8 µM (inactive); in the assay with DU-145, 40.6 µM (inactive). For the same compound, the GI50 was 38.4 µM (inactive) in the assay on K562; > 100 µM (inactive) with SN12C; 84.9 µM (inactive) with CAKI-1; > 100 µM (inactive) in the assay with HL-60; 23.2 µM (inactive) with SNB-19; 35 µM (inactive) in the assay with Malme-3M. In addition, the GI50 in the assay on 786-0 was 18.7 µM (inactive); with NCI-H460 it was 28.6 µM (inactive); in the assay with EKVX, 34.5 µM (inactive); in the assay with COLO 205, > 100 µM (inactive); in the assay on OVCAR-8 it was 35.2 µM (inactive).

In the case of `CC1(C)CC(=O)C(=CNC(=S)c2ccccc2)C(=O)C1`, the GI50 with SF-268 is > 100 µM (inactive); with A549 it was > 100 µM (inactive); in the assay with SK-MEL-28 it was > 100 µM (inactive); with MCF7, > 100 µM (inactive); with MDA-MB-435, > 100 µM (inactive); with CCRF-CEM it was 27 µM (inactive). For the same compound, the GI50 is > 100 µM (inactive) in the assay with DU-145; > 100 µM (inactive) in the assay on SK-OV-3; > 100 µM (inactive) in the assay with SN12C; > 100 µM (inactive) in the assay on CAKI-1; 32.3 µM (inactive) in the assay with HL-60; > 100 µM (inactive) in the assay on SNB-19. Also, the GI50 in the assay with 786-0, in the assay on NCI-H460, in the assay on EKVX, in the assay on COLO 205 and with OVCAR-8 was > 100 µM (inactive) throughout.

`CC1CCc2sc3nc(S)n(C)c(=O)c3c2C1` (stereo unspecified): the GI50 with SF-268 is 48.1 µM (inactive); in the assay with A549, 33.6 µM (inactive); in the assay on SK-MEL-28 it was 58.5 µM (inactive); in the assay on MCF7 it was 35.5 µM (inactive); with MDA-MB-435, 50.5 µM (inactive); in the assay with DU-145, 50.8 µM (inactive). Also, the GI50 in the assay on SK-OV-3 is 81.3 µM (inactive); with K562, 42.2 µM (inactive); with SN12C, 36.5 µM (inactive); in the assay with CAKI-1, 39.2 µM (inactive); with HL-60 it was 2.85 µM (inactive); with SNB-19 it was 33.8 µM (inactive). Also, the GI50 with Malme-3M was 53.6 µM (inactive); in the assay on 786-0 it was 50.8 µM (inactive); in the assay on NCI-H460, 35.4 µM (inactive); in the assay with EKVX it was 19 µM (inactive); with COLO 205, 67.5 µM (inactive); in the assay on OVCAR-8, 39.5 µM (inactive).
